Measurements taken from ChEMBL document CHEMBL1121852, “Nonsteroidal antiinflammatory agents. 3. Synthesis of the positional isomers of 4'-chloro-5-methoxy-3-biphenylylacetic acid and their antiinflammatory and analgesic activities” (J Med Chem, 1981).

Columns and labels:
Mus musculus = assay: Tested for inhibitory activity after administration of compound at 50 mg/kg perorally using AcOH writhing method; format: functional; settings: route oral
[1] = Tested for acute toxicity after administration of compound at 50 mg/kg intraperitoneally in mice; format: organism-based; parameters: dose 50 mg/kg, route intraperitoneal; settings: mouse, in vivo, ip
Rattus norvegicus [2] = assay: Percent inhibition of carrageenan induced rat paw edema 3 hr after a peroral administration of 20 mg/kg; format: functional; settings: route oral
Rattus norvegicus [3] = assay: Percent inhibition of carrageenan induced rat paw edema 3 hr after a peroral administration of 50 mg/kg; format: functional; settings: route oral
Rattus norvegicus [4] = assay: Percent inhibition after administration at 2 mg/kg perorally using carrageenan induced rat paw edema method; format: functional; settings: route oral
Rattus norvegicus [5] = assay: Percent inhibition of carrageenan induced rat paw edema 3 hr after a peroral administration of 0.5 mg/kg; format: functional; settings: route oral
Rattus norvegicus [6] = assay: Percent inhibition of carrageenan induced rat paw edema 3 hr after a peroral administration of 10 mg/kg; format: functional; settings: route oral

SMILES | ED50 (Mus musculus) [mg/kg] | LD50 [1] [mg/kg] | inhibition in vivo at 20 mg/kg (Rattus norvegicus [2]) [%] | inhibition in vivo at 50 mg/kg (Rattus norvegicus [3]) [%] | inhibition in vivo at 2 mg/kg (Rattus norvegicus [4]) [%] | inhibition in vivo at 0.5 mg/kg (Rattus norvegicus [5]) [%] | inhibition in vivo at 10 mg/kg (Rattus norvegicus [6]) [%]
COc1ccc(CC(=O)O)cc1-c1ccc(Cl)cc1 | 26.7 | 673 | 19 | 49 | – | – | –
COc1ccc2c(c1)c(CC(=O)O)c(C)n2C(=O)c1ccc(Cl)cc1 [INDOMETHACIN] | – | – | – | 45 | 25 | 19 | –
COc1c(CC(=O)O)cccc1-c1ccc(Cl)cc1 | > 50 | 283 | – | 16 | – | – | –
COc1cccc(-c2ccc(Cl)cc2)c1CC(=O)O | > 50 | 476 | – | 0 | – | – | –
COc1ccc(-c2ccc(Cl)cc2)cc1CC(=O)O | > 50 | 566 | – | 0 | – | – | –
COc1cc(CC(=O)O)ccc1-c1ccc(Cl)cc1 | 35.1 | 238 | 27 | 38 | – | – | –
COc1cc(CC(=O)O)cc(-c2ccc(Cl)cc2)c1 | 16.1 | 570 | 65 | 53 | – | – | 39
COc1ccc(CC(=O)O)c(-c2ccc(Cl)cc2)c1 | > 50 | 566 | – | 0 | – | – | –
COc1cccc(CC(=O)O)c1-c1ccc(Cl)cc1 | > 50 | 566 | – | 0 | – | – | –
COc1ccc(-c2ccc(Cl)cc2)c(CC(=O)O)c1 | > 50 | 566 | – | 13 | – | – | –
COc1cc(-c2ccc(Cl)cc2)ccc1CC(=O)O | > 50 | 400 | – | 27 | – | – | –
